Measurements taken from patent US10472661B2, “Method for increasing glycosylation of a composition comprising steviol glycosides” (DSM IP ASSETS B.V., priority 2014, dated 2019).

Columns and labels:
UGT3-SEQ ID NO: 74 = molecular target: T1, UGT3-SEQ ID NO: 74 (Stevia rebaudiana, UniProt Q6VAA6); assay type: biochemical; settings: CFE 0.05 mg/mL, UDP-glucose 1 mM
T1 construct: made in house; host or cells: Saccharomyces cerevisiae; unpurified soluble cell extract (CFE) from bead-lysed biomass
T1 sequence (Q6VAA6 1-460): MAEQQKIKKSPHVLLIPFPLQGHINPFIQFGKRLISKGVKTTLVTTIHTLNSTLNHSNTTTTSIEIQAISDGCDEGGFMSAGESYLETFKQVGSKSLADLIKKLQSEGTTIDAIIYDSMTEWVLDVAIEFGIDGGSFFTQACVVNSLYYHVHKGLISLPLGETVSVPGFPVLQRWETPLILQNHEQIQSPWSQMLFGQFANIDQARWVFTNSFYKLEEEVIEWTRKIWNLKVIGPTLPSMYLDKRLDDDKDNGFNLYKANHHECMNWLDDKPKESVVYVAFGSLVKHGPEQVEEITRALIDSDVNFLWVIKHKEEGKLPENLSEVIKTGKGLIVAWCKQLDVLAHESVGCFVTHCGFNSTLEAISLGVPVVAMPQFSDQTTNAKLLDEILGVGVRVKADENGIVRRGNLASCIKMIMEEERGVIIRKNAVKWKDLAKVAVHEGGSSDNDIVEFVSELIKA

[1] = test system: CFE obtained from the Yarrowia lipolitica steviol glycoside producing strains; experiment: bioconversion of rebaudiosideA with CFE of Yarrowia lipolitica steviol glycoside producing strains, UDP-glucose, LC-MS; assay type: biochemical; settings: rebaudiosideA 100-500 μM; CFE 0.1 mg/mL; UDP-glucose 1 mM; products rebaudioside D and rebaudioside M
From the text: Methods to obtain yeast strains expressing constructs encoding the steviol glycoside production pathway are described in WO2013/110673 and WO2015/007748. Here, different Yarrowia lipolitica strains were used: the parent strain (as negative control) and strains expressing the whole steviol glycoside production pathway. Cells were grow o/n in YEPD medium. After determining the optical density at 600 nm (respectively 1.00×10^10 cells/mL for the parent strain cultivation and 6.00-8.57×10^9 cells/mL for different Yarrowia lipolitica steviol glycoside producing strains), cells were lysed with 0.5 mm zirconia beads (see example 2 for details). The protein concentration of the thus obtained CFE were determined using Bradford reagent. The actual obtained protein concentrations ranged from 0,453 mg/mL to 0,771 mg/mL.
A dilution series of rebaudiosideA stock solutions was prepared at 0, 500, 1000, 1500, 2000 and 2500 μM in Van Eunen buffer. The CFE's were diluted in Van Eunen buffer to a concentration of 0.125 mg/m L. A 5 mM stock solution of UDP-glucose was prepared.
The reactions were set-up as described in example 2, only now the concentration of the CFE in the final reaction was doubled. Multiple samples were taken to follow the reactions.
In the reactions the final concentrations were: CFE, 0.1 mg/mL; UDP-glucose, 1 mM; rebaudiosideA, at 0, 100, 200, 300, 400, 500 μM. […]

[2] = suitable for use in carbonated beverages and many other foods; cited from earlier work
[3] = Type II diabetics; studies suggest; cited from earlier work
[4] = mildly hypertensive patients; studies suggest; cited from earlier work
[5] = sweetness relative to sucrose; cited from earlier work

rebaudioside B
glycosylation of rebaudiosideB into rebaudiosideA by spent biomass derived material (UGT3-SEQ ID NO: 74; rebaudioside B 50-200 μM, samples 0-30 min, FIG. 2): very efficiently glycosylated

C=C1C[C@@]23CC[C@H]4[C@@](C)(CCC[C@@]4(C)C(=O)O[C@@H]4O[C@H](CO)[C@@H](O)[C@H](O)[C@H]4O)[C@@H]2CC[C@]1(O[C@@H]1O[C@H](CO)[C@@H](O)[C@H](O[C@@H]2O[C@H](CO)[C@@H](O)[C@H](O)[C@H]2O)[C@H]1O[C@@H]1O[C@H](CO)[C@@H](O)[C@H](O)[C@H]1O)C3 [rebaudioside A]
glycosylated products detected by LC-MS [1]: two glycosylated products of rebaudioside A were detected
heat and pH stability [2]: heat and pH stable
Vmax of rebaudiosideA formation (UGT3-SEQ ID NO: 74; substrate rebaudioside B 0-200 μM, 30° C., calculated with GraphPad 5): 0.0549±0.004 μmol/mg protein/min

C=C1C[C@@]23CC[C@H]4[C@@](C)(CCC[C@@]4(C)C(=O)O[C@@H]4O[C@H](CO)[C@@H](O)[C@H](O)[C@H]4O)[C@@H]2CC[C@]1(O[C@@H]1O[C@H](CO)[C@@H](O)[C@H](O)[C@H]1O[C@@H]1O[C@H](CO)[C@@H](O)[C@H](O)[C@H]1O)C3 [stevioside]
heat and pH stability [2]: heat and pH stable
effect on blood glucose levels [3]: can reduce blood glucose levels
effect on blood pressure [4]: can reduce blood pressure

C=C1C[C@@]23CC[C@H]4[C@@](C)(CCC[C@@]4(C)C(=O)O[C@@H]4O[C@H](CO)[C@@H](O)[C@H](O)[C@H]4O[C@@H]4O[C@H](CO)[C@@H](O)[C@H](O)[C@H]4O)[C@@H]2CC[C@]1(O[C@@H]1O[C@H](CO)[C@@H](O)[C@H](O[C@@H]2O[C@H](CO)[C@@H](O)[C@H](O)[C@H]2O)[C@H]1O[C@@H]1O[C@H](CO)[C@@H](O)[C@H](O)[C@H]1O)C3 [rebaudioside D]
times sweeter than sucrose [5]: about 200 times
